Several values for one entry are separate records, joined by “and”; a condition that tells them apart may be missing. Equal entries are not always repeated.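 Results reflect a 48-hour exposure of cells in 96-well plates to compound at five concentrations. GI50 marks 50% less growth. TGI is the concentration that stops growth completely.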
How the values were obtained:
Test in all cases: NCI-60 cell line screen, 48 h
MOLT-4 leukemia = system: MOLT-4 leukemia
K-562 leukemia = system: K-562 leukemia
PC-3 prostate = system: PC-3 prostate
NCI/ADR-RES ovarian = system: NCI/ADR-RES ovarian
NCI-H460 lung = system: NCI-H460 lung
LOX IMVI melanoma = system: LOX IMVI melanoma
CCRF-CEM leukemia = system: CCRF-CEM leukemia
NCI-H226 lung = system: NCI-H226 lung
M14 melanoma = system: M14 melanoma
MALME-3M melanoma = system: MALME-3M melanoma

SMILES | GI50 (MOLT-4 leukemia) | TGI (MOLT-4 leukemia) | GI50 (K-562 leukemia) | TGI (K-562 leukemia) | GI50 (PC-3 prostate) | TGI (PC-3 prostate) | GI50 (NCI/ADR-RES ovarian) | TGI (NCI/ADR-RES ovarian) | GI50 (NCI-H460 lung) | TGI (NCI-H460 lung) | GI50 (LOX IMVI melanoma) | TGI (LOX IMVI melanoma) | GI50 (CCRF-CEM leukemia) | TGI (CCRF-CEM leukemia) | GI50 (NCI-H226 lung) | TGI (NCI-H226 lung) | GI50 (M14 melanoma) | TGI (M14 melanoma) | TGI (MALME-3M melanoma) | GI50 (MALME-3M melanoma)
CCN(CC)CCOc1ccc2c(C)c(C(=O)OC)oc2c1C(=O)/C=C/c1ccc(OC)cc1 | 1.54 µM | 6.58 µM | 1.13 µM | > 20.1 µM | 2.01 µM | 5.46 µM | 2.58 µM | 6.53 µM | 3.65 µM | > 67.4 µM | 1.34 µM | 2.81 µM | 1.35 µM | 4.52 µM | 25.3 µM | 44.9 µM | 25.4 µM | > 48.7 µM |  | 
O=C(O)Cn1ccc(=O)c2cc([N+](=O)[O-])ccc21 |  | > 100 µM |  | > 100 µM |  | > 100 µM |  | > 100 µM |  | > 100 µM |  |  |  | > 100 µM |  | > 100 µM |  | > 100 µM | > 100 µM | 
c1cncc(C2ONC3=NCCN32)c1 (stereo not drawn) | 28.4 µM | 56.6 µM | 35.6 µM | > 100 µM | 30.8 µM | > 100 µM | 22.1 µM | 80.4 µM | 31 µM | > 100 µM |  |  | 21 µM | 56.6 µM | 20 µM | 68.7 µM | 64.3 µM | > 100 µM | 91.4 µM | 5.17 µM
O=C(Oc1ccc2c(c1)CN(Cc1ccccc1)CO2)c1ccccc1 |  | 54.1 µM |  | 49.6 µM |  | 29.4 µM |  | 59.3 µM |  | 36.1 µM |  | 37.1 µM |  | > 100 µM |  |  |  | 32 µM | 33.9 µM | 
OCC#Cc1ccccc1C#Cc1ccc(C#Cc2ccccc2)cc1 | 2.65 µM | 43.5 µM | 3.92 µM | 26.3 µM | 15.1 µM | 34.2 µM | 17.6 µM | 59.1 µM | 20.5 µM | 79.8 µM | 24.6 µM | > 100 µM |  |  | 18.4 µM | 43 µM | 17.5 µM | 43.9 µM |  | 
C=C(Cl)[C@@](Cl)(CBr)CC[C@@H](Br)C(C)(C)Cl | 17.5 µM | 58.4 µM and 63.8 µM | 1.7 µM | > 100 µM and 23.5 µM | 0.28 µM | 1.42 µM and 1.29 µM | 3.05 µM |  |  |  |  | 39.4 µM and 34.3 µM | 20.3 µM | > 100 µM and 53.6 µM |  | 31 µM and 50.8 µM |  | 40.9 µM and 28.8 µM | 42.9 µM | 
Clc1ccc2c(NCCCN3CCN(c4nc(N5CCOCC5)nc5ccccc45)CC3)ccnc2c1 | 1.36 µM | 3.9 µM | 0.402 µM | 3.75 µM |  |  | 2.23 µM | 4.73 µM | 1.91 µM | 3.84 µM | 1.98 µM | 3.97 µM | 1.8 µM | 5.73 µM |  |  | 1.39 µM | 2.85 µM | 3.49 µM | 1.9 µM
O=C(c1ccccc1)C(Br)C(Br)c1ccccc1 (stereo not drawn) |  |  |  |  | 18.3 µM | 33.4 µM | 2.92 µM | 9.55 µM | 13.8 µM | 29.5 µM | 1.82 µM | 3.41 µM |  |  | 2.94 µM | 7.66 µM | 2.01 µM | 4.12 µM | 4.31 µM | 2.02 µM
